The text below walks through data of patent US6531475B1, “CRF receptor antagonists and methods relating thereto” (Neurocrine Biosciences, Inc., priority 1998, dated 2003).

Read-outs that look alike come from different tables or passages of the source.

The target of this test is T1, human CRF receptors (Homo sapiens, UniProt P34998).
T1 construct: expressed in transfected cells; stably transfected cells, used as membrane suspension
T1 sequence (P34998 24-415): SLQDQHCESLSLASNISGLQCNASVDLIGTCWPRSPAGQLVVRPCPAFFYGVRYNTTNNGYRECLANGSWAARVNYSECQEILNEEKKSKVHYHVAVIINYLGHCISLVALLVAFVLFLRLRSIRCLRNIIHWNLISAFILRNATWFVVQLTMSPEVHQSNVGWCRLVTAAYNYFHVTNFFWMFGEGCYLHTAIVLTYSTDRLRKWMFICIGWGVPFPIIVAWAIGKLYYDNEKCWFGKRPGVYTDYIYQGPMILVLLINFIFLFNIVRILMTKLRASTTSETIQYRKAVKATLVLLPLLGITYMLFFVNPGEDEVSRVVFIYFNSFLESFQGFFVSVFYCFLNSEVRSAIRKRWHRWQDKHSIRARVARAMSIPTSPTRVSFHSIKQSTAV
Description: CRF receptor radioligand binding assay (displacement of [125I]tyrosine-ovine CRF). The conditions noted are these: cells stably transfected with human CRF receptors, read-out: Ki (CRF receptor binding affinity). The source says:
The effectiveness of a compound as a CRF receptor antagonist may be determined by various assay methods. Suitable CRF antagonists of this invention are capable of inhibiting the specific binding of CRF to its receptor and antagonizing activities associated with CRF. A compound of structure (I) may be assessed for activity as a CRF antagonist by one or more generally accepted assays for this purpose, including (but not limited to) the assays disclosed by DeSouza et al. (J. Neuroscience 7:88, 1987) and Battaglia et al. (Synapse 1:572, 1987). […] CRF receptor affinity may be determined by binding studies that measure the ability of a compound to inhibit the binding of a radiolabeled CRF (e.g., [^125I]tyrosine-CFR) to its receptor (e.g., receptors prepared from rat cerebral cortex membranes). The radioligand binding assay described by DeSouza et al. (supra, 1987) provides an assay for determining a compound's affinity for the CRF receptor. Such activity is typically calculated from the IC50 as the concentration of a compound necessary to displace 50% of the radiolabeled ligand from the receptor, and is reported as a “Ki” value calculated by the following equation: [formula]
where L=radioligand and KD=affinity of radioligand for receptor (Cheng and Prusoff, Biochem. Pharmacol. 22:3099, 1973).
With reference to CRF receptor binding affinities, CRF receptor antagonists of this invention have a Ki of less than 10 μM. […] As set forth in greater detail below, the Ki values of representative compounds of this invention were assayed by the methods set forth in Example 9.
The compounds of this invention may be evaluated for binding activity to the CRF receptor by a standard radioligand binding assay as generally described by DeSouza et al. (J. Neurosci. 7:88-100, 1987). By utilizing various radiolabeled CRF ligands, the assay may be used to evaluate the binding activity of the compounds of the present invention with any CRF receptor subtype. Briefly, the binding assay involves the displacement of a radiolabeled CRF ligand from the CRF receptor.
More specifically, the binding assay is performed in 1.5 ml Eppendorf tubes using approximately 1×10^6 cells per tube stably transfected with human CRF receptors. Each tube receives about 0.1 ml of assay buffer (e.g., Dulbecco's phosphate buffered saline, 10 mM magnesium chloride, 20 μM bacitracin) with or without unlabeled sauvagine, urotensin I or CRF (final concentration, 1 μM) to determine nonspecific binding, 0.1 ml of […] tyrosine-ovine CRF (final concentration ˜200 pM or approximately the KD as determined by Scatchard analysis) and 0.1 ml of a membrane suspension of cells containing the CRF receptor. The mixture is incubated for 2 hours at 22° C. followed by the separation of the bound and free radioligand by centrifugation. Following two washes of the pellets, the tubes are cut just above the pellet and monitored in a gamma counter for radioactivity at approximately 80% efficiency. All radioligand binding data may be analyzed using the non-linear least-square curve-fitting program LIGAND of Munson and Rodbard (Anal. Biochem. 107:220, […]).

As to `CC[C@H]1Cn2nc(-c3ccc(C(F)(F)F)cc3OC)c3nc(C)cc(c32)N1Cc1ccc(F)cc1` [I-2a-76], the Ki (more preferred compounds) is less than 250 nM. Consider `CCCC(CCC)N1CC(C)c2cn(-c3ccc(Cl)cc3Cl)c3nc(C)nc1c23` (stereo not drawn) [I-4b-2], for which the Ki is, setting by setting: (more preferred compounds) less than 250 nM; (preferred compounds) less than 1000 nM. In the case of `Cc1cc2c3c(n1)c(-c1ccc(Cl)cc1Cl)nn3CCN2C(C)CCCC(C)C` (stereo not drawn) [I-2a-9], the Ki was less than 250 nM (more preferred compounds) and less than 1000 nM (preferred compounds). For `Cc1cc2c3c(n1)c(-c1ccc(Cl)cc1Cl)nn3CCN2C1CCCc2ccccc21` (stereo not drawn) [I-2a-8], in that order: less than 250 nM and less than 1000 nM. Consider `CC[C@H]1Cn2nc(-c3ccc(C(C)C)cc3C(F)(F)F)c3nc(C)cc(c32)N1CC(C)C` [I-2a-173], for which the Ki (preferred compounds) was less than 1000 nM.

On to `Cc1cc2c3c(n1)c(-c1ccc(Cl)cc1Cl)nn3CCN2C1CCCCC1C` (stereo not drawn) [I-2a-6], for which the Ki (more preferred compounds) is less than 250 nM. For the compound `COc1cc(C(F)(F)F)ccc1-c1nn2c3c(cc(C)nc13)N(CCC(C)C)[C@@H](C)C2` [i-2a-92], the Ki (preferred compounds) is less than 1000 nM. Consider `C=C1CN(C(CCC)CCC)c2nc(C)nc3c2c1cn3-c1ccc(Cl)cc1Cl` [I-4b-1], for which the Ki runs as follows: (more preferred compounds) less than 250 nM; (preferred compounds) less than 1000 nM.
